The text below walks through data of patent publication US20220324835A1 (Nurix Therapeutics, Inc., priority 2018, published 2022).

Common to all, as to type: cell-based, human
Test [1] deals with T-cell. The test can be described thus: IL-2 secretion from T-cells co-stimulated with anti-CD3 and anti-CD28 antibody (Biological Example 2). The note with it: Homo sapiens, T-cell, fold change over baseline, primary human total T-cells, read-out: IL-2 secretion Anti-CD3/Anti-CD28 stimulation; for fold induction at 0.3 µM: 0.3 μM Cbl-b inhibitor; for fold induction at 1 µM: 1 μM Cbl-b inhibitor; for fold induction at 4 µM: 4 μM Cbl-b inhibitor. The gist of the method: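 No assay protocol given; T-cells stimulated with anti-CD3 alone or anti-CD3 plus anti-CD28, with or without Cbl-b inhibitor. Activation read as IL-2 secretion or CD25 surface staining, expressed as fold over baseline from uninhibited cells […].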

In test [2] the test system is T-cell. The test can be described thus: IL-2 secretion from T-cells stimulated with anti-CD3 antibody alone (Biological Example 2). The note with it: T-cell, fold change over baseline, primary human total T-cells, read-out: IL-2 secretion Anti-CD3 stimulation; for fold induction at 1 µM: 1 μM Cbl-b inhibitor; for fold induction at 8 µM: 8 μM Cbl-b inhibitor.
In test [3] the test system is T-cell. In words: CD25 cell surface staining on T-cells stimulated with anti-CD3 antibody alone (Biological Example 2). The note with it: T-cell, fold change over baseline, primary human total T-cells, read-out: CD25 staining Anti-CD3 stimulation; for fold induction at 1 µM: 1 μM Cbl-b inhibitor; for fold induction at 8 µM: 8 μM Cbl-b inhibitor.

The structures appear in SMILES notation.

`C[C@H](Sc1nncn1C)c1ccnc(NC(=O)c2cc(Cl)cc(C(F)(F)F)n2)c1` [Compound 105, (S)-4-chloro-N-(4-(1-((4-methyl-4H-1,2,4-triazol-3-yl)thio)ethyl)pyridin-2-yl)-6-(trifluoromethyl)picolinamide]: in test [1], the fold induction at 0.3 µM fell in the range of 1.01 to 2.5, the fold induction at 1 µM was in the range of 1.01 to 2.5 and the fold induction at 4 µM is less than 1. Further, in test [2], the fold induction at 1 µM is less than 0.05 and the fold induction at 8 µM was less than 0.05. Also, in test [3], the fold induction at 1 µM was less than 0.6 and the fold induction at 8 µM lay in the range of 0.601 to 0.8.

Turning to `Cc1ccc(C(=O)Nc2cc([C@H](C)Sc3nncn3C)ccn2)nc1C1CC1` [Compound 113, (S)-6-cyclopropyl-5-methyl-N-(4-(1-((4-methyl-4H-1,2,4-triazol-3-yl)thio)ethyl)pyridin-2-yl)picolinamide], in test [1], the fold induction at 0.3 µM lay in the range of 2.51 to 5, the fold induction at 1 µM fell in the range of 2.51 to 5 and the fold induction at 4 µM was in the range of 5 to 7.5. Besides, in test [2], the fold induction at 1 µM is less than 0.05 and the fold induction at 8 µM is less than 0.05. Besides, in test [3], the fold induction at 1 µM is less than 0.6 and the fold induction at 8 µM was less than 0.6.

As for `C[C@H](Sc1nncn1C)c1ccnc(NC(=O)c2cc3c(C(F)(F)F)cccc3[nH]2)c1` [Compound 120, N-[4-[(1S)-1-[(4-methyl-1,2,4-triazol-3-yl)sulfanyl]ethyl]-2-pyridyl]-4-(trifluoromethyl)-1H-indole-2-carboxamide], in test [1], the fold induction at 0.3 µM was in the range of 1.01 to 2.5, the fold induction at 1 µM is 1.01 to 2.5 and the fold induction at 4 µM lay within 1.01 to 2.5. For the same compound, in test [2], the fold induction at 1 µM is less than 0.05 and the fold induction at 8 µM was less than 0.05. In addition, in test [3], the fold induction at 1 µM was less than 0.6 and the fold induction at 8 µM was less than 0.6.

`Cc1nc2cc([C@H](C)Sc3nncn3C)cc(NC(=O)c3cccc(C(F)(F)F)n3)c2o1` [Compound 130a, (S)-N-(2-methyl-5-(1-((4-methyl-4H-1,2,4-triazol-3-yl)thio)ethyl)benzo[d]oxazol-7-yl)-6-(trifluoromethyl)picolinamide]: in test [1], the fold induction at 0.3 µM was 2.51 to 5, the fold induction at 1 µM fell in the range of 5 to 7.5 and the fold induction at 4 µM was more than 7.5. In test [2], the fold induction at 1 µM was less than 0.05 and the fold induction at 8 µM is more than 0.201. Besides, in test [3], the fold induction at 1 µM lay within 0.601 to 0.8 and the fold induction at 8 µM was more than 1.

As for `C[C@H](Sc1nncn1C)c1cccc(NC(=O)c2cc(C(=O)N3CC(O)C3)ccn2)c1` [Compound 148, (S)-4-(3-hydroxyazetidine-1-carbonyl)-N-(3-(1-((4-methyl-4H-1,2,4-triazol-3-yl)thio)ethyl)phenyl)picolinamide], in test [1], the fold induction at 0.3 µM was less than 1, the fold induction at 1 µM was less than 1 and the fold induction at 4 µM was less than 1. Further, in test [2], the fold induction at 1 µM is less than 0.05 and the fold induction at 8 µM is less than 0.05. Moreover, in test [3], the fold induction at 1 µM is less than 0.6 and the fold induction at 8 µM lay in the range of 0.601 to 0.8.

For the compound `C[C@H](Sc1nncn1C)c1cccc(NC(=O)c2cc(C(=O)N3C[C@H](O)C[C@@H]3C)ccn2)c1` [Compound 151, 4-((2S,4R)-4-hydroxy-2-methylpyrrolidine-1-carbonyl)-N-(3-((S)-1-((4-methyl-4H-1,2,4-triazol-3-yl)thio)ethyl)phenyl)picolinamide], in test [1], the fold induction at 0.3 µM is more than 7.5, the fold induction at 1 µM is more than 7.5 and the fold induction at 4 µM is more than 7.5. Moreover, in test [2], the fold induction at 1 µM is less than 0.05 and the fold induction at 8 µM was less than 0.05. Moreover, in test [3], the fold induction at 1 µM was less than 0.6 and the fold induction at 8 µM lay in the range of 0.601 to 0.8.

For the compound `C[C@H](Sc1nncn1C)c1cccc(N2Cc3c(cccc3C(F)(F)F)C2=O)c1` [Compound 166a, (S)-2-(3-(1-((4-methyl-4H-1,2,4-triazol-3-yl)thio)ethyl)phenyl)-4-(trifluoromethyl)isoindolin-1-one], in test [1], the fold induction at 0.3 µM was less than 1, the fold induction at 1 µM was less than 1 and the fold induction at 4 µM lay in the range of 1.01 to 2.5. For the same compound, in test [2], the fold induction at 1 µM is less than 0.05 and the fold induction at 8 µM was less than 0.05. In addition, in test [3], the fold induction at 1 µM fell in the range of 0.601 to 0.8 and the fold induction at 8 µM was in the range of 0.801 to 1.

As to `C[C@H](Sc1nncn1C)c1cccc(N2Cc3c(ccnc3Cl)C2=O)c1` [Compound 167, 4-chloro-2-[3-[(1S)-1-[(4-methyl-1,2,4-triazol-3-yl)sulfanyl]ethyl]phenyl]-3H-pyrrolo[3,4-c]pyridin-1-one], in test [1], the fold induction at 0.3 µM was 1.01 to 2.5, the fold induction at 1 µM is less than 1 and the fold induction at 4 µM fell in the range of 2.51 to 5. In test [2], the fold induction at 1 µM is less than 0.05 and the fold induction at 8 µM lay in the range of 0.101 to 0.15. Besides, in test [3], the fold induction at 1 µM was less than 0.6 and the fold induction at 8 µM was in the range of 0.601 to 0.8.

Turning to `CC(Sc1nncn1C)c1cc(F)cc(N2Cc3c(cccc3C(F)(F)F)C2=O)c1` [Compound 168, 2-[3-fluoro-5-[(1R)-1-[(4-methyl-1,2,4-triazol-3-yl)sulfanyl]ethyl]phenyl]-4-(trifluoromethyl)isoindolin-1-one], in test [1], the fold induction at 0.3 µM lay in the range of 1.01 to 2.5, the fold induction at 1 µM lay in the range of 1.01 to 2.5 and the fold induction at 4 µM fell in the range of 1.01 to 2.5. In test [2], the fold induction at 1 µM is less than 0.05 and the fold induction at 8 µM is 0.051 to 0.1. For the same compound, in test [3], the fold induction at 1 µM fell in the range of 0.801 to 1 and the fold induction at 8 µM fell in the range of 0.601 to 0.8.

Consider `C[C@H](Sc1nncn1C)c1cc(F)cc(N2Cc3c(cccc3C(F)(F)F)C2=O)c1` [Compound 168a, 2-[3-fluoro-5-[(1S)-1-[(4-methyl-1,2,4-triazol-3-yl)sulfanyl]ethyl]phenyl]-4-(trifluoromethyl)isoindolin-1-one], for which, in test [1], the fold induction at 0.3 µM was less than 1, the fold induction at 1 µM was 1.01 to 2.5 and the fold induction at 4 µM was less than 1. Besides, in test [2], the fold induction at 1 µM is less than 0.05 and the fold induction at 8 µM is less than 0.05. Also, in test [3], the fold induction at 1 µM is less than 0.6 and the fold induction at 8 µM lay in the range of 0.801 to 1.

As for `C[C@H](Sc1nncn1C)c1ccnc(N2Cc3c(cccc3C(F)(F)F)C2=O)c1` [Compound 172a, (S)-(4-(1-((4-methyl-4H-1,2,4-triazol-3-yl)thio)ethyl)pyridin-2-yl)-4-(trifluoromethyl)isoindolin-1-one], in test [1], the fold induction at 0.3 µM is 2.51 to 5, the fold induction at 1 µM was in the range of 2.51 to 5 and the fold induction at 4 µM fell in the range of 2.51 to 5. Also, in test [2], the fold induction at 1 µM was less than 0.05 and the fold induction at 8 µM was less than 0.05. Besides, in test [3], the fold induction at 1 µM is less than 0.6 and the fold induction at 8 µM was less than 0.6.

On to `C[C@H](Cc1nncn1C)c1cccc(NC(=O)c2cccc(S(C)(=O)=O)n2)c1` [Compound 185, (R)-N-(3-(1-(4-methyl-4H-1,2,4-triazol-3-yl)propan-2-yl)phenyl)-6-(methylsulfonyl)picolinamide], for which, in test [1], the fold induction at 0.3 µM is 1.01 to 2.5, the fold induction at 1 µM was 1.01 to 2.5 and the fold induction at 4 µM lay within 2.51 to 5. In addition, in test [2], the fold induction at 1 µM was 0.051 to 0.1 and the fold induction at 8 µM is 0.051 to 0.1. For the same compound, in test [3], the fold induction at 1 µM was less than 0.6 and the fold induction at 8 µM is less than 0.6.
